Experimental data reported in article PMC8333425, “Discovery of a dual Ras and ARF6 inhibitor from a GPCR endocytosis screen” (Nature Communications, 2021).

What was measured:
Assay in all cases: KINOMEscan kinase binding assay
[1] = target: T1, 384 kinases from the human genome (Homo sapiens, UniProt Q13554); settings: kinase CAMK2B (Entrez CAMK2B)
T1 construct: purchased Eurofin/DiscoverX
Text: (§1) We reasoned that because internalizing AT1R and its targeting to intracellular compartments can support continued MAPK signaling, and since 21 inhibits receptor internalization, it should also impede to some extent ERK1/2 activation. […] Receptor-mediated ERK1/2 signaling can involve upstream kinases such as PKC, BRAF, and MEK1[35],[36]. […] To exclude other kinases potentially involved in ERK1/2 and Akt activation as targets of 21, we ran a kinase binding assay (KINOMEscan™) on 384 kinases from the human genome. Remarkably, a very high selectivity score S(10) of 0.008 was found (Supplementary Data 3).
(§2) The chemical library used for initial screening was from Chembridge DiverSet™ (60,000 compounds), Maybridge HitFinder™ (16,000 compounds), Maybridge (selected, 16,000 compounds), SPECS (selected, 16000 compounds), Microsource Discovery Spectrum (2000 compounds), Biomol (natural products, 500 compounds), Prestwick (commercialized products, 1120 compounds), SIGMA LopacTM (1280 compounds) and internal collection (synthesized at Université de Montréal-IRIC, ~4000 compounds). Compounds were all assigned an Université de Montréal number (UM) for internal use. Screen was performed at IRIC HTS facility. KINOMEscan™ profiling was serviced by Eurofin/DiscoverX (San Diego, USA).
(§3) Description of Additional Supplementary Files […]
(§4) File Name: Supplementary Data 3
(§5) Description: KINOMEscan results. Compound 21’s effect was tested on 384 kinases. Data represent kinases binding to their ligands in presence of 10 µM of 21, as compared to DMSO (100%). Results are from one experiment and represent the average of duplicates. Three kinases (FLT3, KIT, and PDGFRB) out of 384 were more than 90% affected (selectivity score S(10) of 0.008). […]

[2] = target: T2, 384 kinases from the human genome (Homo sapiens, UniProt P49760); settings: kinase CLK2 (Entrez CLK2)
T2 construct: purchased Eurofin/DiscoverX
Text: as §1, §2, §3, §4, §5

[3] = target: T3, 384 kinases from the human genome (Homo sapiens, UniProt P45983); settings: kinase JNK1 (Entrez MAPK8)
T3 construct: purchased Eurofin/DiscoverX
Text: as §1, §2, §3, §4, §5

[4] = target: T4, 384 kinases from the human genome (Homo sapiens, UniProt P24723); settings: kinase PRKCH (Entrez PRKCH)
T4 construct: purchased Eurofin/DiscoverX
Text: as §1, §2, §3, §4, §5

[5] = target: T5, 384 kinases from the human genome (Homo sapiens, UniProt P42684); settings: kinase ABL2 (Entrez ABL2)
T5 construct: purchased Eurofin/DiscoverX
Text: as §1, §2, §3, §4, §5

[6] = target: T6, 384 kinases from the human genome (Homo sapiens, UniProt P53778); settings: kinase p38-gamma (Entrez MAPK12)
T6 construct: purchased Eurofin/DiscoverX
Text: as §1, §2, §3, §4, §5

[7] = target: T7, 384 kinases from the human genome (Homo sapiens, UniProt O15111); settings: kinase IKK-alpha (Entrez CHUK)
T7 construct: purchased Eurofin/DiscoverX
Text: as §1, §2, §3, §4, §5

[8] = target: T8, 384 kinases from the human genome (Homo sapiens, UniProt Q13163); settings: kinase MEK5 (Entrez MAP2K5)
T8 construct: purchased Eurofin/DiscoverX
Text: as §1, §2, §3, §4, §5

[9] = target: T9, 384 kinases from the human genome (Homo sapiens, UniProt O00141); settings: kinase SGK (Entrez SGK1)
T9 construct: purchased Eurofin/DiscoverX
Text: as §1, §2, §3, §4, §5

[10] = target: T10, 384 kinases from the human genome (Homo sapiens, UniProt Q9Y2U5); settings: kinase MAP3K2 (Entrez MAP3K2)
T10 construct: purchased Eurofin/DiscoverX
Text: as §1, §2, §3, §4, §5

[11] = target: T11, 384 kinases from the human genome (Homo sapiens, UniProt P04626); settings: kinase ERBB2 (Entrez ERBB2)
T11 construct: purchased Eurofin/DiscoverX
Text: as §1, §2, §3, §4, §5

[12] = target: T12, 384 kinases from the human genome (Homo sapiens, UniProt P16234); settings: kinase PDGFRA (Entrez PDGFRA)
T12 construct: purchased Eurofin/DiscoverX
Text: as §1, §2, §3, §4, §5

[13] = target: T13, 384 kinases from the human genome (Homo sapiens, UniProt Q9NRM7); settings: kinase LATS2 (Entrez LATS2)
T13 construct: purchased Eurofin/DiscoverX
Text: as §1, §2, §3, §4, §5

[14] = target: T14, 384 kinases from the human genome (Homo sapiens, UniProt Q09013); settings: kinase DMPK (Entrez DMPK)
T14 construct: purchased Eurofin/DiscoverX
Text: as §1, §2, §3, §4, §5

[15] = target: T15, 384 kinases from the human genome (Homo sapiens, UniProt Q14004); settings: kinase CDC2L5 (Entrez CDK13)
T15 construct: purchased Eurofin/DiscoverX
Text: as §1, §2, §3, §4, §5

[16] = target: T16, 384 kinases from the human genome (Homo sapiens, UniProt P49336); settings: kinase CDK8 (Entrez CDK8)
T16 construct: purchased Eurofin/DiscoverX
Text: as §1, §2, §3, §4, §5

[17] = target: T17, 384 kinases from the human genome (Homo sapiens, UniProt P49674); settings: kinase CSNK1E (Entrez CSNK1E)
T17 construct: purchased Eurofin/DiscoverX
Text: as §1, §2, §3, §4, §5

[18] = target: T18, 384 kinases from the human genome (Homo sapiens, UniProt Q8WXR4); settings: kinase MYO3B (Entrez MYO3B)
T18 construct: purchased Eurofin/DiscoverX
Text: as §1, §2, §3, §4, §5

[19] = target: T19, 384 kinases from the human genome (Homo sapiens, UniProt Q9HBH9); settings: kinase MKNK2 (Entrez MKNK2)
T19 construct: purchased Eurofin/DiscoverX
Text: as §1, §2, §3, §4, §5

[20] = target: T20, 384 kinases from the human genome (Homo sapiens, UniProt P19525); settings: kinase PRKR (Entrez EIF2AK2)
T20 construct: purchased Eurofin/DiscoverX
Text: as §1, §2, §3, §4, §5

[21] = target: T21, 384 kinases from the human genome (Homo sapiens, UniProt Q13233); settings: kinase MAP3K1 (Entrez MAP3K1)
T21 construct: purchased Eurofin/DiscoverX
Text: as §1, §2, §3, §4, §5

[22] = target: T22, 384 kinases from the human genome (Homo sapiens, UniProt P53671); settings: kinase LIMK2 (Entrez LIMK2)
T22 construct: purchased Eurofin/DiscoverX
Text: as §1, §2, §3, §4, §5

[23] = target: T23, 384 kinases from the human genome (Homo sapiens, UniProt Q8NFD2); settings: kinase ANKK1 (Entrez ANKK1)
T23 construct: purchased Eurofin/DiscoverX
Text: as §1, §2, §3, §4, §5

[24] = target: T24, 384 kinases from the human genome (Homo sapiens, UniProt Q16659); settings: kinase ERK3 (Entrez MAPK6)
T24 construct: purchased Eurofin/DiscoverX
Text: as §1, §2, §3, §4, §5

[25] = target: T25, 384 kinases from the human genome (Homo sapiens, UniProt P15735); settings: kinase PHKG2 (Entrez PHKG2)
T25 construct: purchased Eurofin/DiscoverX
Text: as §1, §2, §3, §4, §5

[26] = target: T26, 384 kinases from the human genome (Homo sapiens, UniProt P42681); settings: kinase TXK (Entrez TXK)
T26 construct: purchased Eurofin/DiscoverX
Text: as §1, §2, §3, §4, §5

T4 sequence (P24723 whole entry): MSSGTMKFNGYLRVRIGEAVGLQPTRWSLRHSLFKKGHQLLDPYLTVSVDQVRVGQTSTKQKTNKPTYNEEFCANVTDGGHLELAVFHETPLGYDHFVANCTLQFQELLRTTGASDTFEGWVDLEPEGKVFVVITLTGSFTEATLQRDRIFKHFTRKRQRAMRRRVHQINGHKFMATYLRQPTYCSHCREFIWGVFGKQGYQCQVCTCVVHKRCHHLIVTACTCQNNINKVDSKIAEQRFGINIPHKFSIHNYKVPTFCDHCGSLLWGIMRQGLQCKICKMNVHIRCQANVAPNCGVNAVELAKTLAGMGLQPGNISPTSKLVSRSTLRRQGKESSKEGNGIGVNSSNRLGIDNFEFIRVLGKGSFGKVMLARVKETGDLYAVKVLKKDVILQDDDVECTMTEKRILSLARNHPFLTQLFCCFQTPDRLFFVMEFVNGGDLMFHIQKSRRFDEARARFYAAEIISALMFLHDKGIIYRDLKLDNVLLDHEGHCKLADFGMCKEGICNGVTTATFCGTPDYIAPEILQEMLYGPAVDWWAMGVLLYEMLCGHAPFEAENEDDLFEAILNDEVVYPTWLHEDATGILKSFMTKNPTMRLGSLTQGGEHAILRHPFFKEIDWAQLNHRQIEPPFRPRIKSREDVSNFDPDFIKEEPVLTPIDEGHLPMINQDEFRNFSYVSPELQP
T18 sequence (Q8WXR4 whole entry): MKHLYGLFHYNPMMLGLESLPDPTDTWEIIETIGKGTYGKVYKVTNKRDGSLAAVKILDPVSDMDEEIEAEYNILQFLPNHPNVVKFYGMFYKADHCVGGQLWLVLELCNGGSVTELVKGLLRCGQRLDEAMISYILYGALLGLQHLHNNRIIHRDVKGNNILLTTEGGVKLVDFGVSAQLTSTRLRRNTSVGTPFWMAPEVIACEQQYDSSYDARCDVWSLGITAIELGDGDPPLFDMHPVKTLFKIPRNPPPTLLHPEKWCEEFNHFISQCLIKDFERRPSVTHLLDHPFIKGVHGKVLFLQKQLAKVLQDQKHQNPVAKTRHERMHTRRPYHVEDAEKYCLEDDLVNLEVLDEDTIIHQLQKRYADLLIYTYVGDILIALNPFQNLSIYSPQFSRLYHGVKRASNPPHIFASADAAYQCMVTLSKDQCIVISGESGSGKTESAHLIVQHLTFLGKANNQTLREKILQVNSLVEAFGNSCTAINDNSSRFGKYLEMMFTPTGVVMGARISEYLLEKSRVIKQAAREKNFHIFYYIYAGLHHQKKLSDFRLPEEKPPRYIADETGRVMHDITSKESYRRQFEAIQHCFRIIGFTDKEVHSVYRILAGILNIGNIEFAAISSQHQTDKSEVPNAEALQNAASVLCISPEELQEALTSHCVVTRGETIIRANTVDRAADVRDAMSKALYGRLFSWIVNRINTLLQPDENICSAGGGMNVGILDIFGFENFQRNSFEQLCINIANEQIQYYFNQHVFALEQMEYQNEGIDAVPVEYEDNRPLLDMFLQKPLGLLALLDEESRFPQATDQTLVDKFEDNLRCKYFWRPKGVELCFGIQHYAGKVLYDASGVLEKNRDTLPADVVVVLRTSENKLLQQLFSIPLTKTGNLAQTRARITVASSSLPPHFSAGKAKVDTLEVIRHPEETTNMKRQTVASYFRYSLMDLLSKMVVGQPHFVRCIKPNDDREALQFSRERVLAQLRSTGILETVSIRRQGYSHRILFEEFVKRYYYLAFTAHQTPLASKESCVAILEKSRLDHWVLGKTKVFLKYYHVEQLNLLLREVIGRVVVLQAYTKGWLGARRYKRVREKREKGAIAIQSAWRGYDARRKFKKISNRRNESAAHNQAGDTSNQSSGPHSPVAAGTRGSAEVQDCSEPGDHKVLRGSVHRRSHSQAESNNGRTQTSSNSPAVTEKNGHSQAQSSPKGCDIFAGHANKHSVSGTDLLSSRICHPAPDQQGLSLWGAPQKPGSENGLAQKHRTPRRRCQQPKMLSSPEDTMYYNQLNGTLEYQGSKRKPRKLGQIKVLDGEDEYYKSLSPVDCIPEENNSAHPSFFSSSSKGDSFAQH
T22 sequence (P53671 whole entry): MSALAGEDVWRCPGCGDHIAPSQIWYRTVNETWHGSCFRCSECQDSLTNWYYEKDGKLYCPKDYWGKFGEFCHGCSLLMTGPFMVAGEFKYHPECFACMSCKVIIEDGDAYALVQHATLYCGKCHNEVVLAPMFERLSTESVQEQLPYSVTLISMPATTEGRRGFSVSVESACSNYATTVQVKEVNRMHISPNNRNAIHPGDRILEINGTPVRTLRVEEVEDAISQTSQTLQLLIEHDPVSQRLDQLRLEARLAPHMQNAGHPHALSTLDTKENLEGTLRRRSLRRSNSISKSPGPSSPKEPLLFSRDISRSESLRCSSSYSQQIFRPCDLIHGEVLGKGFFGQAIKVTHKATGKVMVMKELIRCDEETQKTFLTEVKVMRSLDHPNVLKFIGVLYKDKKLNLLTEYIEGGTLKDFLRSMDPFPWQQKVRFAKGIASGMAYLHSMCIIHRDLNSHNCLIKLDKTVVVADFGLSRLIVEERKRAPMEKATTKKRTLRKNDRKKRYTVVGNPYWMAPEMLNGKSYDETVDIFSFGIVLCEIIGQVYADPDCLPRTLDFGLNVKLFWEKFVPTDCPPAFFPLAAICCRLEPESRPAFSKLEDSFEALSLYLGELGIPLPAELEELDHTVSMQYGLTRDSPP
T11 sequence (P04626 23-1255): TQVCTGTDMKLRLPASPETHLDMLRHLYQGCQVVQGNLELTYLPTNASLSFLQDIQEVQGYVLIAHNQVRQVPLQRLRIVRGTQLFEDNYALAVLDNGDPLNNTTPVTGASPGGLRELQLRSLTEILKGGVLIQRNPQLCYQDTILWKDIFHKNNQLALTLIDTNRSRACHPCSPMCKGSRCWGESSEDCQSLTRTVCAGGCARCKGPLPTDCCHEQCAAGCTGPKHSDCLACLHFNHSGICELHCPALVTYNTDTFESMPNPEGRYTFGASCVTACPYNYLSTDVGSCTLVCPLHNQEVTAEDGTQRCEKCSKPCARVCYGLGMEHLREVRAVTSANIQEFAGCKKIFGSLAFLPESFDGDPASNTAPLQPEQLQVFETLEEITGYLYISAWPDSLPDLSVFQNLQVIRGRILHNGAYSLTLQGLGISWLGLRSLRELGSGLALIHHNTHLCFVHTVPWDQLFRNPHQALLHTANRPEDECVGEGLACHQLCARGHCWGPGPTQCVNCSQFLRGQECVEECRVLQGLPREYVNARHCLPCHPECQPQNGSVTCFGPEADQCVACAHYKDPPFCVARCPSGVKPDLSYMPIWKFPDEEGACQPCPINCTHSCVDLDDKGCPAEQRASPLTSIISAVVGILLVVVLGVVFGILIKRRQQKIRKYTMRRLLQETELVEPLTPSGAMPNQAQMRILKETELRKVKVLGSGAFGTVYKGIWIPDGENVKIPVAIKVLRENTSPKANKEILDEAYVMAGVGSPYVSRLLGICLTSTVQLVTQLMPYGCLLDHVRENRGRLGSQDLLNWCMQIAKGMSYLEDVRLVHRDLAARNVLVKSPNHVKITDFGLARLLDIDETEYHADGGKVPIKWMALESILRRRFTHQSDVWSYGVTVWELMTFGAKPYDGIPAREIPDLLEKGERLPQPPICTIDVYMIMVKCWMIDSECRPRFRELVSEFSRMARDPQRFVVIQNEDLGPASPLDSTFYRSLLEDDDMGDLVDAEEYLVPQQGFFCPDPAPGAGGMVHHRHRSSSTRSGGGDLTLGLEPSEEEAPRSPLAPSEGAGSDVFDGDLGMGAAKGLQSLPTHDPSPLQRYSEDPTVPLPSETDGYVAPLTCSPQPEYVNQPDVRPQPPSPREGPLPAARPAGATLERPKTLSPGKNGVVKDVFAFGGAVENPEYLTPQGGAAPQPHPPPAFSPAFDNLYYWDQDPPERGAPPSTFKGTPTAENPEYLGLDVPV
T9 sequence (O00141 whole entry): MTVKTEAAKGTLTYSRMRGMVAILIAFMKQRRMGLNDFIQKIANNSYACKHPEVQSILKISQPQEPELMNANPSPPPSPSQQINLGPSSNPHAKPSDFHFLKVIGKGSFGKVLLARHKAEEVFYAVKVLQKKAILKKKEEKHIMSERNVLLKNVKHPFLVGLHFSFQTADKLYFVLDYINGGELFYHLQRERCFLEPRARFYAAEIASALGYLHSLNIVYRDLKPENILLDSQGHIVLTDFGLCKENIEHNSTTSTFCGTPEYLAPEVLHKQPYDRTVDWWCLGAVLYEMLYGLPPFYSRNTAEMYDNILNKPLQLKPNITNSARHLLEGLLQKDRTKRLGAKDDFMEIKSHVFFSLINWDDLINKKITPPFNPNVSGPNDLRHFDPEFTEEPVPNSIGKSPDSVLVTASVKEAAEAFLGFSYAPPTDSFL
T6 sequence (P53778 whole entry): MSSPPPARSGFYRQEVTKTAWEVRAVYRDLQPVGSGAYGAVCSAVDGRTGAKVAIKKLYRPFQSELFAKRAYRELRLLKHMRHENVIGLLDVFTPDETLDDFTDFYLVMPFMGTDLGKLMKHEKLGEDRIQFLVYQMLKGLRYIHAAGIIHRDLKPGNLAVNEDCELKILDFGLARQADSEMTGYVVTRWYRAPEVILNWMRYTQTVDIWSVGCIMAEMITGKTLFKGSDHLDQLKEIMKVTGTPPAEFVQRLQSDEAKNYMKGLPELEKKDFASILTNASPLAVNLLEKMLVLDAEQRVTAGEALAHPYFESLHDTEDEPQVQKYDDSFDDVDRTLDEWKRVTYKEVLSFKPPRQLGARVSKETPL

## CC(C)C(=O)N1CCN(c2ccc(NC(=O)c3cc4ccccc4o3)cc2Cl)CC1 [Compound 21]
[1]
  Percent Control: 100%
[2]
  Percent Control: 100%
[3]
  Percent Control: 63%
[4]
  Percent Control: 92%
[5]
  Percent Control: 91%
[6]
  Percent Control: 100%
[7]
  Percent Control: 100%
[8]
  Percent Control: 72%
[9]
  Percent Control: 100%
[10]
  Percent Control: 99%
[11]
  Percent Control: 75%
[12]
  Percent Control: 72%
[13]
  Percent Control: 98%
[14]
  Percent Control: 100%
[15]
  Percent Control: 100%
[16]
  Percent Control: 100%
[17]
  Percent Control: 100%
[18]
  Percent Control: 58%
[19]
  Percent Control: 97%
[20]
  Percent Control: 65%
[21]
  Percent Control: 92%
[22]
  Percent Control: 90%
[23]
  Percent Control: 100%
[24]
  Percent Control: 90%
[25]
  Percent Control: 100%
[26]
  Percent Control: 76%
